Laboratory results taken from patent publication US7767822B2, “Water-soluble tetrazolium salts” (Bayer Healthcare LLC, priority 2005, dated 2010).
Where two headings read alike, the source gives them in different places.

What was measured:
[1] = Absorption spectra of formazans formed from the tetrazolium salts; assay type: physicochemical; settings: 100 μM tetrazolium salt in 100 mM potassium phosphate buffer, 5-fold excess ascorbate; compared with HTC-045
Procedure: The compounds prepared and tested for their solubility had somewhat different spectral properties. The absorption spectra of each formazan formed from the tetrazolium salt and tested for solubility in Table 1 was measured with a Hewlett Packard Model 8453 diode-array UV-visible spectrophotometer. Solutions of 100 μM of a tetrazolium salt were prepared in 100 mM potassium phosphate buffer. The formazan spectra were measured after the addition of 5-fold excess ascorbate acid salt to convert the tet salts to their formazans.

[2] = Solubility of tetrazolium salts in 0.2M phosphate buffer; assay type: physicochemical
[3] = 0.2M phosphate buffer, pH ~7.5, room temperature

Molecule | shape of formazan absorbance versus wavelength curve [1] | Solubilility [2] | Solubilility [2, 3]
5-Benzo[1,3 dioxol-5-yl]-3-[2-(3-trimethylammonium) propoxy-phenyl]-2-(5-chloro-4-difluoromethyl-thiazol-2-yl)-2H-tetrazolium bromo nitrite salt [Example 1] | relatively flat |  | 
CCOc1ccc2nc(-n3nc(-c4ccc(OCCC[N+](C)(C)C)c(OC)c4)n[n+]3-c3ccccc3OCCC[N+](C)(C)C)sc2c1.O=N[O-].[Br-].[Br-] [Example 7] | relatively flat | 169 mM | 
5-[4-(3-trimethylammonium)propoxy-3-methoxy-phenyl]-3-[2-(3-trimethylammonium) propoxy-phenyl]-2-(6-bromo-benzothiazol-2-yl)-2H-tetrazolium dibromo nitrite salt [Example 8] | relatively flat |  | 
5-[4-(3-trimethylammonium) propoxy-3-methoxy-phenyl]-3-[2-(3-trimethylammonium) propoxy-phenyl]-2-(6-ethoxy-benzothiazol-2-yl)-2H-tetrazolium tribromide salt [Example 9] |  |  | 260 mM
Br.CN(C)CCCOc1ccccc1-[n+]1nc(-c2ccc3c(c2)OCO3)nn1-c1nc(C(F)F)c(Cl)s1.O=N[O-] [Example 3, 5-Benzo[1,3 dioxol-5-yl]-3-[2-(3-dimethylhydrogenammoniun)propoxy-phenyl]-2-(5-chloro-4-difluoromethyl-thiazol-2-yl)-2 H-tetrazolium bromo nitrite salt] | relatively flat | 9 mM | 
5-Benzo[1,3 dioxol-5-yl]-3-[2-(3-trimethylammonium) propoxy-phenyl]-2-(5-chloro-4-difluoromethyl-thiazol-2-yl)-2 H-tetrazolium bromo tetrafluoroborate salt [Example 2] | relatively flat | 5 mM | 
5-Benzo[1,3 dioxol-5-yl]-3-[2-(3-trimethylammonium) propoxy-phenyl]-2(benzothiazol-2-yl)-2 H-tetrazolium bromo nitrite salt [Example 4] | relatively flat |  | 
5-Benzo[1,3 dioxol-5-yl]-3-[2-(3-trimethylammonium) propoxy-phenyl]-2-(6-methoxynapthylthiazol-2-yl)-2 H-tetrazolium bromo nitrite salt [Example 5] | rising absorbance verses wavelength curve |  | 
COc1cc(-c2nn(-c3nc(C(F)F)c(Cl)s3)[n+](-c3ccccc3OCCC[N+](C)(C)C)n2)ccc1OCCC[N+](C)(C)C.O=N[O-].[Br-].[Br-] [Example 6, 5-[4-(3-trimethylammonium)propoxy-3-methoxy-phenyl]-3-[2-(3-trimethylammonium)propoxy-phenyl]-2-(5-chloro-4-difluoromethyl-thiazol-2-yl)-2H-tetrazolium dibromo nitrite salt] | relatively flat |  | 181 mM
